Assay results from patent US8309324B2, “Promoters and proteins from Clostridium thermocellum and uses thereof” (University of Rochester, priority 2004, dated 2012).
Entries after “also recorded” stand apart in the source; their conditions may differ.

Columns and labels:
[1] = system: rGlyR3-celC promoter complex; test: EMSA, effect of sugars on the rGlyR3-celC promoter complex; type: binding, Clostridium thermocellum; conditions: for effect of sugar on the rGlyR3-celC promoter binding reaction: 15 mM sugar, 5 ng 100 bp celC promoter DNA, 0.5 ng rGlyR3, FIG. 17
Method: The EMSA analyzing biotin labeled DNA fragments. Lane 1, no protein and 5 ng DNA; Lanes 2-12 contain 5 ng 100 bp celC promoter DNA, 0.5 ng rGlyR3 and 15 mM of their respected sugars.
(§1) All EMSA experiments described herein were performed using a 4% polyacrylamide gel and Tris-Borate-EDTA buffer. EMSA reactions all contained: 500 ng poly (dI-dC), 1× Lightshift EMSA kit binding buffer (Pierce), 1× Lightshift loading dye (Pierce), optimized amounts of DNA probe, protein, and saccharides as specified in figure legends.
The binding of the rGlyR3 protein was inhibited by laminaribiose. Several sugars were tested to see if they could inhibit the rGlyR3-celC promoter complex.

CelR = biological target: T1, CelR (Thermobifida fusca, UniProt O87590); conditions: Spiridonov et al. 1999; cited from earlier work
T1 sequence (O87590 1-340): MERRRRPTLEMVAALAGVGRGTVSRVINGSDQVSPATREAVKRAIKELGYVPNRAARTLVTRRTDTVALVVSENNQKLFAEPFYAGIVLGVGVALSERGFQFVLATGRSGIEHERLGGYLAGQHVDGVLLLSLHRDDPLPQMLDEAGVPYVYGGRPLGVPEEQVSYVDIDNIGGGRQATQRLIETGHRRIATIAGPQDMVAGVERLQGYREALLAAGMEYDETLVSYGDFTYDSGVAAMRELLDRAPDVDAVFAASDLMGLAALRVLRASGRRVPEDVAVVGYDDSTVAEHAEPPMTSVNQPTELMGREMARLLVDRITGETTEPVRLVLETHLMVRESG

[2] = system: celC, glyR3, licA, orf4, manB and celT transcripts; test: RT-qPCR, inducibility of gene expression in C. thermocellum grown on different substrates; type: cell-based, Clostridium thermocellum; conditions: substrate 0.5%, time course of 50 hrs, compared with 1-3 linked sugars, FIG. 2
Method: FIG. 2 is a graph showing RT-qPCR results detailing the inducibility of expression of celC, glyR3 and licA when Clostridium thermocellum is grown on a 1-3 linked sugar: lichenan, laminarin and laminaribiose, compared to the 1-4 linked sugar, cellobiose. The bacterium was grown on the substrates for a time course of 50 hrs. Each 10 hours a sample was taken and the RNA harvested, DNase I digested, subjected to reverse transcription, and then qPCR. Columns left to right for each substrate represent relative transcription levels of celC, glyR3, licA orf4 manB and ceIT, respectively. The qPCR levels are all relative to the 16S transcript in C. thermocellum.
To test the effect of growth substrate on the inducibility of the expression of celC, glyR3, licA, orf4, manB, and celT genes in C. thermocellum, C. thermocellum was grown on substrates containing either a 1-4 linked sugar (cellobiose) or a 1-3 linked sugar (laminarin, lichenan, and laminaribiose). RT-qPCR was carried out on the cells to determine the level of 16S transcripts of the genes, as follows.
The bacterium was grown on the substrates for a time course of 50 hrs. Each 10 hrs a sample was taken. Cultures were centrifuged to collect the cells. Everything used from this point forward was RNase free. […] RNA concentration was measured using a Hitachi U-2000 spectrophotometer at 260/280 nm. […]

[3] = system: rGlyR3-celC promoter complex; test: EMSA rGlyR3 binding site competition assay; design: species or system Clostridium thermocellum; conditions: 100x unlabeled competitor, 0.5 ng rGlyR3, FIG. 16
Method: FIG. 16 is a gel showing the results of an EMSA rGlyR3 binding site competition assay. A gel shift competition assay was used to analyze specificity of binding and confirm the DNase I footprint results. All lanes contain biotin labeled 100 bp celC promoter fragment containing the binding site. Lane 1, no protein; Lane 2, 0.5 ng rGlyR3; Lane 3, 0.5 ng rGlyR3 and 100× unlabeled 18 bp binding site; Lane 4, 0.5 ng rGlyR3 and 100 × control fragment (18 bp piece of original 100 bp region, contains no part of putative binding site).
as §1
The 18 bp sequence corresponds to (SEQ ID NO:36): AATGAACGC GCGTACATT.

celC transcription = test: In vitro transcription assay (RT-qPCR readout); type: biochemical, Clostridium thermocellum
Method: The baseline transcription mixture consists of: rNTPs, transcription buffer, 1 ug of 850 bp DNA containing celC and its promoter region, 10 ul C. thermocellum cell lysate (grown on cellobiose). After transcription, the RNA was harvested, DNase I digested, used in a Reverse Transcriptase reaction and then in qPCR.
A DNA template for in vitro transcription was created using the following primers (SEQ ID NO:30): Invt-F-[…]; (SEQ ID NO:31): Invt-R-CCAGTGGGCTTTCTGATGC) to amplify the 200 bp celC promoter along with 650 bp of the celC gene. PCR used a standard reaction for Extensor Hi-Fidelity Enzyme with genomic DNA as template. Each in vitro transcription assay contained: 10 μl C. thermocellum cell lysate (cellobiose grown culture), 2 μl RNase Out (Invitrogen, Carlsbad, Calif.), 1× RNA polymerase buffer, 1 μg of DNA template, 25 nM rNTP's, differing amounts of rGlyR3, differing amounts of laminaribiose, and DEPC water to a volume of 50 μl. The reactions were incubated at 60° C. for 50 minutes. After incubation the resulting RNA was isolated using the previously described Trizol method. The isolated RNA was subjected to DNase I digestion and a standard reverse transcription reaction as described above. Using the qPCR protocol already outlined, with primers for celC, it was possible to show the amount of transcript created for each reaction.

celC promoter region = test: EMSA, binding of rGlyR3 to the celC promoter region; design: species or system Clostridium thermocellum
Method: Gel Shift, or Band Shift Assay, or Electrophoretic Mobility Shift Assay (EMSA) is a technique for studying gene regulation and determining protein:DNA interactions. The assay is based on the observation that complexes of protein and DNA migrate through a non-denaturing polyacrylamide gel more slowly than free DNA fragments or double-stranded oligonucleotides. The gel shift assay is carried out by first incubating a protein(s) (such as nuclear or cell extract) with a 32^P end-labeled DNA fragment containing the putative protein binding site. The reaction products are then analyzed on a non-denaturing polyacrylamide gel. The specificity of the DNA-binding protein for the putative binding site is established by competition experiments using DNA fragments or oligonucleotides containing a binding site for the protein of interest or other unrelated DNA sequences.
as §1
EMSA gels were electroblotted onto Biodyne B membrane (Pall Corporation). Signal development was accomplished using the Lightshift Chemiluminescent EMSA kit protocol (Pierce). Kodak Biomax film captured the luminescence for viewing.
Probes for EMSA were created using PCR with Thermostart Taq (ABgene) as a polymerase. The standard Thermostart protocol was used with varying extension times (1 kb/minute rule always followed) and different annealing temperatures (57° C.-62° C.). Primers were synthesized with a 5′ biotin label by Invitrogen (Carlsbad, Calif.). Primers (5′-3′) used: […]
For probes that contained just the 18 bp binding site, complementary DNA fragments were synthesized and annealed by heating to 94 C and then cooling:
(§2) The dissociation constant was determined as the concentration of GlyR3 needed to shift 50% of the celC promoter region in the EMSA.

[4] = system: 200 bp fragment of the celS structure gene; test: EMSA, rGlyR3 with celS structure gene fragment as probe; type: binding, Clostridium thermocellum; conditions: FIG. 11, lanes 5 and 6
Method: as §1, §2

With OC[C@H]1O[C@@H](OC[C@H]2OC(O)[C@H](O)[C@@H](O)[C@@H]2O)[C@H](O)[C@@H](O)[C@@H]1O (some centres unmarked) [gentibiose] the “effect of sugar on the rGlyR3-celC promoter binding reaction” value (“effect of sugar” below) [1] was “no effect”.

In the case of O=C[C@H](O)[C@@H](O)[C@H](O[C@@H]1O[C@H](CO)[C@@H](O)[C@H](O)[C@H]1O)[C@H](O)CO [cellobiose], the “concentration inhibiting binding of CelR to its target DNA sequence” value (CelR) is listed as 0.2 to 0.5 mM and the “transcript level of the gene cluster relative to 16S transcript” value [2] is listed as “less of the transcript containing the genes is produced”.

For “unlabeled 18 bp binding site: 18 bp near perfect palindromic sequence of the celC promoter, SEQ ID NO:36: AATGAACGC GCGTACATT (DNA AATGAACGCGCGTACATT; listed as DNA, chemistry not given here)”, the “competition for the shifted band of the 100 bp celC promoter fragment” value [3] was “able to compete out the shifted band”.

For OC[C@H]1O[C@@H](O[C@H]2[C@H](O)[C@@H](O)C(O)O[C@@H]2CO)[C@H](O)[C@@H](O)[C@H]1O (some centres unmarked) [lactose], the “effect of sugar” value [1] was “no effect”.

In the case of OC[C@H]1O[C@@](CO)(O[C@H]2O[C@H](CO)[C@@H](O)[C@H](O)[C@H]2O)[C@@H](O)[C@@H]1O [sucrose], the “effect of sugar” value [1] is reported as “no effect”.

For OC[C@H]1O[C@@H](O[C@H]2[C@H](O)[C@@H](CO)OC(O)[C@@H]2O)[C@H](O)[C@@H](O)[C@@H]1O (some centres unmarked) [laminaribiose], the “effect of sugar” value [1] was “severely reduced the formation of the DNA-protein complex”, the “effect on binding of GlyR3 to the 18 bp binding site” value ([1]; FIG. 15) was “inhibited” and the “effect of laminaribiose on GlyR3-100 bp celC promoter interaction” value ([1]; GlyR3 0.5 ng, DNA 5 ng, increasing laminaribiose, FIG. 9) was “inhibited; also recorded: DNA-protein complex diminished as the concentration of laminaribiose increased”. The “effect on celC transcription in presence of GlyR3” value (celC transcription; 5 mM laminaribiose in addition to 400 ng GlyR3, FIG. 3) was “transcription returned to baseline levels or greater”.

In the case of OC[C@H]1O[C@H](O[C@H]2[C@H](O)[C@@H](O)[C@H](O)O[C@@H]2CO)[C@H](O)[C@@H](O)[C@@H]1O [maltose], the “effect of sugar” value [1] is reported as “no effect”.

B1: GlyR3: C. thermocellum LacI-like repressor protein, amino acid sequence SEQ ID NO:3; rGlyR3 is the recombinant form expressed in E. coli (protein)
chain: MTSEEIAKLCGVSRATVSRVINNSPNVKEETRQKILAVIKEKNYVPIAPARRLAGIDSNIIGLFVLDIDISESKSRVSESTYFSRLINLIIDQANNFGFQVLVSIITSQKQLSEIRNLFMSRTIFSGIFIGAFNDEIQLDDDIIMQHPTIIIDRQSERMVKKPNRLVVNLDNFEGAYNATQFLIKLGHTRIGHISGDLRKLSGIERYEGYKKALEDAGLGFDKNLVREGNFLDDSGYRLAREILKENVTAIFCANDVMAISAIKAIKETGLSVPDDISVIGFDNTAIGNYIMPALTTVNAPLEHIAEACIESLKYFCEHKHFKQKEIRVKTDLIIRDSTKRALEF
modifications: C. thermocellum
notes: rGlyR3 is the recombinant form expressed in E. coli
With B1 the “binding to first and second halves of the celC promoter (band shift)” value (celC promoter region; 0.5 ng rGlyR3, 5 ng of each probe, FIG. 11) was “creates a shifted band with both probes”, the “binding to the 200 bp celC promoter region” value (celC promoter region; 1 ng protein, 5 ng DNA, FIG. 12) was “binds” and the “binding to a control fragment of 18 bp located within the celC promoter” value (celC promoter region; FIG. 13) was “no binding”. The “binding to the 18 bp DNA fragment (binding site)” value (celC promoter region; FIG. 13) was “dose dependent binding”, the “effect on transcription of the celC gene in vitro” value (celC transcription; 400 ng GlyR3, FIG. 3) was “can inhibit transcription” and the “binding to 200 bp fragment of the celS structure gene” value [4] was “does not bind”.
